Source: patent US8513428B2, “Process for preparing atazanavir bisulfate and novel forms” (Bristol-Meyers Squibb Company, priority 2009, dated 2013)
Where a name gives a salt, the structure may show the parent alone.

Test: moisture-sorption isotherms
Type: physicochemical
Details: in the range from 25 to 75% RH at 25° C.

- moisture-sorption isotherms weight gain: about 0.1%
Compound: COC(=O)N[C@H](C(=O)N[C@@H](Cc1ccccc1)[C@@H](O)CN(Cc1ccc(-c2ccccn2)cc1)NC(=O)[C@@H](NC(=O)OC)C(C)(C)C)C(C)(C)C [Form A, 1-[4-(Pyridin-2-yl)phenyl]-5(S)-2,5-bis{[N-(methoxycarbonyl)-L-tert-leucinyl]amino}-4-(S)-hydroxy-6-phenyl-2-azahexane, Bisulfate salt (Form A)]
